Where only a bound is given, the exact number is not on record here.

The target of assay [1] is T1, Lanosterol synthase (Rattus norvegicus, UniProt P48450).
T1 sequence (P48450 whole entry): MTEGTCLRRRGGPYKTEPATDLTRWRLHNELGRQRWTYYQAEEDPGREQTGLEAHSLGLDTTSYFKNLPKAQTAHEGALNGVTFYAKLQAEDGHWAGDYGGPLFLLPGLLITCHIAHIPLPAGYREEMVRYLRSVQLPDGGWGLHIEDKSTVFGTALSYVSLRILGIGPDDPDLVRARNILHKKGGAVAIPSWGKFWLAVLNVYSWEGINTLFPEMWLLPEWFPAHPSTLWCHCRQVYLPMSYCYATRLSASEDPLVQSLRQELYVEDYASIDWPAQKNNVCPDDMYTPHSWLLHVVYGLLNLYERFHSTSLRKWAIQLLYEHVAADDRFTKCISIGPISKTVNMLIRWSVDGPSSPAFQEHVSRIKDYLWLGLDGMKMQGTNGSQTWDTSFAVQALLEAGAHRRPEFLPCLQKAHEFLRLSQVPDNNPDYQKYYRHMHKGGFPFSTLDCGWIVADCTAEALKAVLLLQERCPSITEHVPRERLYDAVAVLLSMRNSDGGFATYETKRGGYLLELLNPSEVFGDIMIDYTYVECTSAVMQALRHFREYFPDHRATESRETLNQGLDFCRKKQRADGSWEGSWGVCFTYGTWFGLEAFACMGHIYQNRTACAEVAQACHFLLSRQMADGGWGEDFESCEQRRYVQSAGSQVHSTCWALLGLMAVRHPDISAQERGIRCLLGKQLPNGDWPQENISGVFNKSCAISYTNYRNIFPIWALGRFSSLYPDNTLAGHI
Put plainly: Compound was evaluated for the inhibition of microsomal 2,3-oxidosqualene cyclase in rat liver microsomes. The following applies: read-out: I50. Details: species or system Microsome. For orientation: Microsomes from liver hold many membrane-bound enzymes, among them those of drug oxidation.

The target in assay [2] is T1, Lanosterol synthase. Put plainly: Compound was evaluated for the inhibition of microsomal 2,3-oxidosqualene-lanosterol cyclase in rat liver microsomes. Also noted: species or system Microsome. As to conditions: read-out: I50.

For the molecule `CC(C)=CCC/C(C)=C/CCC(C)=CCCCN(C)CC/C=C(/C)CCC1OC1(C)C` (configuration not stated), the IC50 in assay [1] was more than 20 µM.

As for `CC(C)=CCC/C(C)=C/CC/C(C)=C/CCCN(C)CC/C=C(\C)CCC1OC1(C)C` (configuration not stated), the IC50 in assay [2] is 4.8 µM.
